According to ChEMBL document CHEMBL6127034, “Design, synthesis and biological evaluation of a novel PAK1 degrader for the treatment of triple negative breast cancer” (Bioorg Med Chem, 2024):
pKd: −log10 of the molar value. Calls of active or inactive are those of the source. No cut-off for these calls is given here.

Key:
[1] = target: Serine/threonine-protein kinase PAK 2 (Homo sapiens) (UniProt Q13177); test: Inhibition of PAK2 in human MDA-MB-231 cells incubated upto 48 hrs by Western blot analysis; format: cell-based
MDA-MB-231 [2] = test: Induction of apoptosis in human MDA-MB-231 cells xenografted in BALB/c mouse assessed as increase in Bax level at 20 mg/kg, ip qd for 12 days by Western blot analysis; format: functional, organism-based; conditions: time 12.0 day
[3] = target: T1, von Hippel-Lindau disease tumor suppressor/Serine/threonine-protein kinase PAK 1 (Homo sapiens, UniProt Q13153+P40337); test: PROTAC activity at VHL/PAK1 in human MDA-MB-231 cells assessed as fold change in protein expression at 2.5 uM incubated for 48 hrs by Western blot analysis relative to control; format: cell-based
[4] = target: T1, von Hippel-Lindau disease tumor suppressor/Serine/threonine-protein kinase PAK 1; test: PROTAC activity at VHL/PAK1 in human MDA-MB-231 cells assessed as induction of protein degradation incubated for 48 hrs in presence of VHL by Western blot analysis; format: cell-based
MDA-MB-231 [5] = test: Inhibition of cell proliferation of human MDA-MB-231 cells xenografted in BALB/c mouse assessed as reduction in Ki-67 level at 20 mg/kg, ip qd for 12 days by IHC analysis; format: functional, organism-based; conditions: time 12.0 day
MDA-MB-231 [6] = test: Induction of apoptosis in human MDA-MB-231 cells assessed as late apoptotic cells at 2.5 to 10 uM incubated for 24 hrs by Annexin V-FITC/PI staining based flow cytometry (reference value: 2.46 %); format: functional; conditions: dose 2.5-10 µM
MDA-MB-231 [7] = test: Inhibition of cell proliferation of human MDA-MB-231 cells assessed as decrease in Ki-67 expression at 2.5 uM incubated for 24 hrs by immunofluorescence based analysis; format: functional
MDA-MB-231 [8] = test: Antitumor activity against human MDA-MB-231 cells xenografted in BALB/c mouse assessed as reduction in tumor growth rate at 20 mg/kg, ip qd for 12 days; format: functional, organism-based; conditions: time 12.0 day
MDA-MB-231 [9] = test: Induction of apoptosis in human MDA-MB-231 cells assessed as late apoptotic cells at 2.5 uM incubated for 12 to 48 hrs by Annexin V-FITC/PI staining based flow cytometry (reference value: 1.48 %); format: functional; conditions: time 12-48 hrs
[10] = target: T2, Serine/threonine-protein kinase PAK 1 (Homo sapiens, UniProt Q13153); test: Binding affinity to CM5 chip-immobilized recombinant PAK1 (unknown origin) assessed as dissociation constant by SPR analysis
MDA-MB-231 [11] = test: Antiproliferative activity against human MDA-MB-231 cells assessed as decrease in colony formation by crystal violet staining based analysis; format: functional, cell-based; conditions: dose <= 10.0 µM
[12] = target: T2, Serine/threonine-protein kinase PAK 1; test: Inhibition of PAK1 in human MDA-MB-231 cells assessed as decrease in ERK1/2 phosphorylation at Thr202/Tyr204 incubated upto 48 hrs by Western blot analysis; format: cell-based
MDA-MB-231 [13] = test: Induction of apoptosis in human MDA-MB-231 cells xenografted in BALB/c mouse assessed as decrease in ERK1/2 phosphorylation at Thr202/Tyr204 at 20 mg/kg, ip qd for 12 days by Western blot analysis; format: functional, organism-based; conditions: time 12.0 day
[14] = target: T2, Serine/threonine-protein kinase PAK 1; test: In vivo inhibition of PAK1 phosphorylation at S199 in human MDA-MB-231 cells xenografted in BALB/c mouse at 20 mg/kg, ip qd for 12 days by Western blot analysis; format: functional, organism-based; conditions: time 12.0 day
MDA-MB-231 [15] = test: Induction of apoptosis in human MDA-MB-231 cells xenografted in BALB/c mouse assessed as increase in PARP level at 20 mg/kg, ip qd for 12 days by Western blot analysis; format: functional, organism-based; conditions: time 12.0 day
MDA-MB-231 [16] = test: Induction of apoptosis in human MDA-MB-231 cells assessed as early apoptotic cells at 2.5 to 10 uM incubated for 24 hrs by Annexin V-FITC/PI staining based flow cytometry (reference value: 1.70 %); format: functional; conditions: dose 2.5-10 µM
MDA-MB-231 [17] = test: Induction of apoptosis in human MDA-MB-231 cells assessed as increase in Bax level at 2.5 to 10 uM incubated upto 48 hrs by Western blot analysis; format: functional, cell-based; conditions: dose 2.5-10 µM
MDA-MB-231 [18] = test: Induction of apoptosis in human MDA-MB-231 cells assessed as necrotic cells at 2.5 to 10 uM incubated for 48 hrs by Annexin V-FITC/PI staining based flow cytometry (reference value: 1.08 %); format: functional; conditions: dose 2.5-10 µM
MDA-MB-231 [19] = test: Induction of apoptosis in human MDA-MB-231 cells assessed as viable cells at 2.5 uM incubated for 12 to 48 hrs by Annexin V-FITC/PI staining based flow cytometry (reference value: 97.0 %); format: functional; conditions: time 12-48 hrs, read-out: Activity
[20] = Toxicity in BALB/c mouse xenografted with human MDA-MB-231 cells assessed as animal growth at 20 mg/kg, ip qd for 12 days; format: organism-based; conditions: in vivo, 288 h, time 12 day
MDA-MB-231 [21] = test: Induction of apoptosis in human MDA-MB-231 cells assessed as increase in cleaved PARP level at 2.5 to 10 uM incubated upto 48 hrs by Western blot analysis; format: functional, cell-based; conditions: dose 2.5-10 µM
[22] = target: T1, von Hippel-Lindau disease tumor suppressor/Serine/threonine-protein kinase PAK 1; test: PROTAC activity at VHL/PAK1 in human MDA-MB-231 cells assessed as induction of protein degradation incubated for 48 hrs in presence of Bortezomib by Western blot analysis; format: cell-based
MDA-MB-231 [23] = test: Inhibition of cell proliferation of human MDA-MB-231 cells at 2.5 uM by crystal violet staining based colony formation assay; format: functional
MDA-MB-231 [24] = test: Induction of apoptosis in human MDA-MB-231 cells assessed as necrotic cells at 2.5 to 10 uM incubated for 24 hrs by Annexin V-FITC/PI staining based flow cytometry (reference value: 1.08 %); format: functional; conditions: dose 2.5-10 µM
[25] = target: T2, Serine/threonine-protein kinase PAK 1; test: In vivo inhibition of PAK1 phosphorylation at S144 in human MDA-MB-231 cells xenografted in BALB/c mouse at 20 mg/kg, ip qd for 12 days by Western blot analysis; format: functional, organism-based; conditions: time 12.0 day
MDA-MB-231 [26] = test: Induction of apoptosis in human MDA-MB-231 cells xenografted in BALB/c mouse assessed as increase in cleaved caspase-3 level at 20 mg/kg, ip qd for 12 days by Western blot analysis; format: functional, organism-based; conditions: time 12.0 day
MDA-MB-231 [27] = test: Inhibition of cell migration in human MDA-MB-231 cells assessed as decrease in MMP-2 level by Western blot analysis; format: functional, cell-based; conditions: time <= 48.0 hrs, TDE = time-dependent effect
MDA-MB-231 [28] = test: Induction of apoptosis in human MDA-MB-231 cells assessed as late apoptotic cells at 2.5 to 10 uM incubated for 12 hrs by Annexin V-FITC/PI staining based flow cytometry (reference value: 2.46 %); format: functional; conditions: dose 2.5-10 µM
MDA-MB-231 [29] = test: Induction of apoptosis in human MDA-MB-231 cells assessed as increase in cleaved caspase-8 level at 2.5 to 10 uM incubated upto 48 hrs by Western blot analysis; format: functional, cell-based; conditions: dose 2.5-10 µM
MDA-MB-231 [30] = test: Inhibition of 3D-spherioid formation of human MDA-MB-231 cells at 2.5 uM by crystal violet staining based colony formation assay; format: functional, cell-based
MDA-MB-231 [31] = test: Induction of apoptosis in human MDA-MB-231 cells assessed as viable cells at 2.5 to 10 uM incubated for 24 hrs by Annexin V-FITC/PI staining based flow cytometry (reference value: 94.8 %); format: functional; conditions: dose 2.5-10 µM
[32] = target: T2, Serine/threonine-protein kinase PAK 1; test: Inhibition of PAK1 phosphorylation at S144 in human MDA-MB-231 cells incubated upto 48 hrs by Western blot analysis; format: cell-based

T2 sequence (Q13153 whole entry): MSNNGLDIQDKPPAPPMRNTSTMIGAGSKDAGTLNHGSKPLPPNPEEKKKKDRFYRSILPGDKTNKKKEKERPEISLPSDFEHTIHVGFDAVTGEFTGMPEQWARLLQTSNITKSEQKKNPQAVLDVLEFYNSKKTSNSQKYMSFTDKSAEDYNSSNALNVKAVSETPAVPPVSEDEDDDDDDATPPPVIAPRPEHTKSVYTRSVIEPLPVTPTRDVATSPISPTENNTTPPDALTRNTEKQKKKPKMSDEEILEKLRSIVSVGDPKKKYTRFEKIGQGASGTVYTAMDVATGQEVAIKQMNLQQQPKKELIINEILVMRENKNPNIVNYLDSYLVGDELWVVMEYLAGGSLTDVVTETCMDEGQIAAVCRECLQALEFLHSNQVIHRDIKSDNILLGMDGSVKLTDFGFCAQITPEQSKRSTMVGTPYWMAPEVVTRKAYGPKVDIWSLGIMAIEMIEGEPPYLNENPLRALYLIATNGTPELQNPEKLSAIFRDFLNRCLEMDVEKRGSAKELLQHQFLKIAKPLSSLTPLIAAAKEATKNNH
T1 sequence (Q13153 2-545 limits assumed): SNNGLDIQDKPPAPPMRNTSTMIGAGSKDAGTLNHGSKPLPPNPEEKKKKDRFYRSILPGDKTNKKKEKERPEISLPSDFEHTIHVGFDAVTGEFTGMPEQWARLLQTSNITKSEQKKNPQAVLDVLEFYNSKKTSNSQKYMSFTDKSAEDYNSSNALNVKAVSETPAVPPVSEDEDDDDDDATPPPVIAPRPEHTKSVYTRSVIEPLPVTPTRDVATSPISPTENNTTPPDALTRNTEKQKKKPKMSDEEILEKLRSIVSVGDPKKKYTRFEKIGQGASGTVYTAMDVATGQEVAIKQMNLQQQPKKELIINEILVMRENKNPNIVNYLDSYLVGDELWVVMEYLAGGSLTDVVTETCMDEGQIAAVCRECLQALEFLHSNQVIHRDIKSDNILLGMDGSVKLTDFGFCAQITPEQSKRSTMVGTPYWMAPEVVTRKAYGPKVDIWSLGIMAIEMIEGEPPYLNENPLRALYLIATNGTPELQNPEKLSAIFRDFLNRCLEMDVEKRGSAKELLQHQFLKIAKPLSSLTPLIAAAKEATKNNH
T1 sequence (P40337 whole entry partner): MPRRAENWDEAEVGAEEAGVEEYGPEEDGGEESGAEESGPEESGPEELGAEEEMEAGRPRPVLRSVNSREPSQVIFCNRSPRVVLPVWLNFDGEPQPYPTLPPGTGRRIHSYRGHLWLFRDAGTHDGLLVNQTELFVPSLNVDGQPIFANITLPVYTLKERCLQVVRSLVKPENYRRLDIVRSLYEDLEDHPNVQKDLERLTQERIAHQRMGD
Serine/threonine-protein kinase PAK 2 (Homo sapiens), sequence (Q13177 whole entry): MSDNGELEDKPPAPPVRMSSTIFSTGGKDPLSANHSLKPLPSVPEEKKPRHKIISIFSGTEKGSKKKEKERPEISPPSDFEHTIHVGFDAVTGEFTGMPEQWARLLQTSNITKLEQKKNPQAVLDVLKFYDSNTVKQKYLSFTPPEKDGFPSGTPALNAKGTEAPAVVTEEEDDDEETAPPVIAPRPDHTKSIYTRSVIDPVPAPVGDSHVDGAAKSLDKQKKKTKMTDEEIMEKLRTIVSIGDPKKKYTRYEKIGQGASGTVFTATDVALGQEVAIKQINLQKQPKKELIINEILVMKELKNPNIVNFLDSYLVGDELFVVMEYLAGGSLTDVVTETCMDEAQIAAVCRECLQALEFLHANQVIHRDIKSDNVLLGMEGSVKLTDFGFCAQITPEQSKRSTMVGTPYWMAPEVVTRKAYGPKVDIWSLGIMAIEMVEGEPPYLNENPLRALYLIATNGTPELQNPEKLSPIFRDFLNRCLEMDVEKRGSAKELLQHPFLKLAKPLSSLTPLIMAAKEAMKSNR

inhibition [1]: inactive | fold change (FC) [3]: 0.29 | Activity [4]: inactive | pKd [10]: 4.79 | inhibition [12]: Active | inhibition [14]: Active | Activity [22]: inactive | inhibition [25]: Active | inhibition [32]: Active
Structure (SMILES): Cc1ncsc1-c1ccc([C@H](C)NC(=O)[C@@H]2C[C@@H](O)CN2C(=O)[C@@H](NC(=O)CCc2cn(CCCCCCCn3c(=O)c(-c4ccc(Cl)cc4Cl)cc4cnc(NC5CC5)nc43)nn2)C(C)(C)C)cc1
Activity (MDA-MB-231 [2]): Active | inhibition (MDA-MB-231 [5]): Active | Activity (MDA-MB-231 [6]): 6.74% | inhibition (MDA-MB-231 [7]): Active | Activity (MDA-MB-231 [8]): Active | Activity (MDA-MB-231 [9]): 8.21% | Activity (MDA-MB-231 [11]): Dose-Dependent Effect | Activity (MDA-MB-231 [13]): Active | Activity (MDA-MB-231 [15]): Active | Activity (MDA-MB-231 [16]): 11.7% | Activity (MDA-MB-231 [17]): Active | Activity (MDA-MB-231 [18]): 1.74% | viability at 2.5 µM (MDA-MB-231 [19]): 84.8% | Activity [20]: Non-Toxic | Activity (MDA-MB-231 [21]): Active | inhibition (MDA-MB-231 [23]): Active | Activity (MDA-MB-231 [24]): 4.92% | Activity (MDA-MB-231 [26]): Active | inhibition (MDA-MB-231 [27]): Tde | Activity (MDA-MB-231 [28]): 5.67% | Activity (MDA-MB-231 [29]): Active | inhibition (MDA-MB-231 [30]): Active | Activity (MDA-MB-231 [31]): 76.6%
